From paper PMC8248988, “A signal capture and proofreading mechanism for the KDEL-receptor explains selectivity and dynamic range in ER retrieval” (eLife, 2021)

What was measured:
Format in all cases: cell-based, human
[1] = test system: BIP; experiment: ER chaperone secretion assay, BIP
Text: (§1) Figure 1. ER retrieval signal abundance and affinity are not correlated. (a) Sequence logos for ER resident proteins with C-terminal KDEL retrieval signals and variants thereof calculated using frequency or protein abundance ([Itzhak et al., 2017]; [Itzhak et al., 2016]). (b) Combined cellular concentrations of ER resident proteins with canonical KDEL, RDEL, and HDEL retrieval sequences in HeLa cells and mouse brain. (c) Competition binding assays for [^3H]-TAEHDEL and unlabelled TAEKDEL, TAERDEL, and TAEHDEL to the KDEL receptor. IC50 values for the competing peptides were used to calculate the apparent KDwith the Cheng-Prusoff equation ([Cheng and Prusoff, 1973]). (d) Endogenous KDEL receptor redistribution was measured in COS-7 cells in the absence (-ligand) or presence of K/R/H/A/DDEL (mScarlet-xDEL^sec). TGN46 was used as a Golgi marker. Scale bar is 10 µm. (e) The mean difference for K/R/H/A/DDEL comparisons against the shared no ligand control are shown as Cummings estimation plots. The individual data points for the fraction of KDEL receptor fluorescence in the Golgi are plotted on the upper axes with sample sizes and p values. Figure 1—source data 1. Source data for the ligand-induced KDELR receptor retrieval assays in Figure 1e. Figure 1—figure supplement 1. Abundance of ER resident proteins and chaperones in human cells and mouse brain. (a) The mean concentration of ER resident chaperones with the indicated ER retrieval sequence variant is plotted in the bar graph ([Itzhak et al., 2017]; [Itzhak et al., 2016]). […] Endogenous ER chaperone secretion was measured by western blotting after challenge with different retrieval signals, and plotted as a bar graph showing mean ± SEM (n = 3). […] (a) Distribution of human KDELR1 and (b) KDELR2 was measured in COS-7 cells in the absence (-ligand) or presence of K/R/H/A/DDEL retrieval signals (K/R/H/A/DDEL^sec). […] The fraction of KDEL receptor localised to the Golgi was measured before (no ligand) and after challenge with different retrieval signals as indicated. […]

[2] = test system: PDI; experiment: ER chaperone secretion assay, PDI
Text: as §1

[3] = test system: ERP44; experiment: ER chaperone secretion assay, ERP44
Text: as §1

[4] = mean, HeLa S3, 24 hr, Western blot densitometry

ADEL [pcDNA3.1 hGHss-mScarlet-H. sapiens BiP639-654K651A (ADEL^SEC), secreted mScarlet fusion with human BiP C-terminus, ADEL signal]
BiP secretion after challenge with retrieval signal [1, 4]: 8.5 | BiP secretion after challenge with retrieval signal ([1]; replicate 1): 15.9 | BiP secretion after challenge with retrieval signal ([1]; replicate 2): 1.1 | PDI secretion after challenge with retrieval signal [2, 4]: 6.6 | PDI secretion after challenge with retrieval signal ([2]; replicate 1): 7.3 | PDI secretion after challenge with retrieval signal ([2]; replicate 2): 6.0 | ERP44 secretion after challenge with retrieval signal [3, 4]: 11.8 | ERP44 secretion after challenge with retrieval signal ([3]; replicate 1): 8.7 | ERP44 secretion after challenge with retrieval signal ([3]; replicate 2): 14.9
